According to patent US4762828A, “1,2,4-triazolo[4,3-d]-4-azatricyclo-[4.3.1.1^3,8 ]undecane and 3-substituted derivatives, and intermediates thereof” (Pennwalt Corporation, priority 1987, dated 1988):

Assays:
[1] = tested on: carrageenan-induced rat paw edema; assay: carrageenan-induced rat paw edema assay (anti-inflammatory activity); format: in vivo, male Sprague Dawley rats; details: for % Inhibition: oral, control 63.9% edema; for anti-inflammatory activity (in words): administered orally
Method: Anti-inflamatory activity was determined by carragenaninduced paw edema of laboratory rats. Groups of six male Sprague Dawley rats orally received compound suspended in a 1% aqueous solution of Methocel brand methylcellulose. Control rats received a 0.5% aqueous solution of Methocel only. Two hours later, each rat received a subcutaneous injection of 0.1 ml of a 1% homogenized suspension of carrageenan in the plantar surface of the right hind paw.
Immediately, the volume of the paw was measured by immersing it in mercury to above the lateral mateolus. The mercury in a glass cylinder 25 mm in diameter and 60 mm deep was connected at the bottom on the cylinder by a column of water to a Statham transducer (model P23BB), range 0-5 cm of mercury pressure. The volume was recorded electronically on a Beckman recorder, R511. Three hours later, the inflamed paw volume was measured again, and the change in volume was recorded for each group. Indomethacin,a known anti-inflamatory agent, was included as a standard.

mice [2] = assay: antihypoxia test: survival duration of mice in a normobaric atmosphere of 96% nitrogen and 4% oxygen at 35° C; format: in vivo; details: for Survival Minutes, Compound: N=5, 35° C.
Method: N^1 = Number of mice in each group
NS = Not significant, P >0.05
ip = intraperitoneal administration
iv = intravenous administration
The antihypoxia test measures the survival duration of mice in a normobaric atmosphere consisting of 96% nitrogen and 4% oxygen, at 35° C. The mice are considered dead when they stop visible respiration. The test indicates potential clinical utility in situations of central nervous system hypoxia, such as occurs following stroke, cardiac arrest, and traumatic accidents.

minimal neurotoxic dose = assay: minimal neurotoxic dose; parameters: species or system mice; details: mouse, in vivo, ip
mice [3] = assay: estimated LD50; details: ip

Row | Compound | % Inhibition ([1]; 4.0 mg/kg) [%] | Survival Minutes, Compound (mice [2]; 1 mg/kg iv, control 2.36, P NS) [min] | Survival Minutes, Compound (mice [2]; 1.5 mg/kg iv, control 2.30, P NS) [min] | prolonged the survival time of mice in the antihypoxia test (mice [2]; 6 mg/kg (i.p.)) | Survival Minutes, Compound (mice [2]; 6 mg/kg ip, control 2.08, P =0.04) [min] | minimal neurotoxic dose (minimal neurotoxic dose) [mg/kg] | % Inhibition ([1]; 25.0 mg/kg) [%] | % Inhibition ([1]; 50.0 mg/kg) [%] | anti-inflammatory activity (in words) [1] | Estimated LD50 (mice [3]) [mg/kg] | % Inhibition ([1]; 50.0 mg/kg, Hydroiodide) [%] | % Inhibition ([1]; 100.0 mg/kg) [%]
1 | COc1ccc2c(c1)c(CC(=O)O)c(C)n2C(=O)c1ccc(Cl)cc1 [Indomethacin, reference compound] | 52.8 |  |  |  |  |  |  |  |  |  |  | 
2 | c1nnc2n1C1CC3CC(CC2C3)C1 [Example 2, 1,2,4-Triazolo[4,3-d]-4-azatricyclo[4.3.1.1^3,8]undecane] |  | 2.34 | 3.02 | more than 2 fold | 5.78 | 6 | 17.0 | 28.3 | demonstrated activity | 12 |  | 
3 | c1nnc2n1C1CC3CC(CC2C3)C1 [Example 1, 1,2,4-Triazolo[4,3-d]-4-azatricyclo[4.3.1.1^3,8]undecane Hydroiodide] |  |  |  |  |  |  | 17.0 |  | demonstrated activity |  | 43.4 | 56.6
